{"source": "patent US20180271792A1", "about": "“ORAL DELIVERY OF PHYSIOLOGICALLY ACTIVE SUBSTANCES” (Rezolute, Inc., priority 2017, published 2018)", "key": {"[1]": {"test_system": "Caco-2 monolayer", "procedure": "In order to estimate the membrane permeability of various formulations, a Caco-2 permeability study was performed. The compounds tested were insulin-PEG (5 kDa), insulin-PEG (5 kDa) inclusion complex, insulin-PEG (5 kDa) inclusion complex and DPC, insulin-PEG (2 kDa), and the insulin-PEG (2 kDa) inclusion complex. All compounds were dissolved in media at a concentration of 1 mg insulin/mL media and added to a Caco-2 monolayer."}, "[2]": {"details": "rat, in vivo, po", "procedure": "In forming samples 12-15, the insulin-PEG (or insulin-PEG inclusion complex) and the fish oil were sonicated for 30 minutes. The DPC was then added to the sonicated mixture and the mixture was briefly swirled or vortexed to mix. The resulting mixtures were kept at room temperature for 1 hour. The samples were administered via an oral gavage to rats at 150 IU/kg (for 5 kDa PEG) and 75 IU/kg (for 2 kDa PEG). At specified intervals, blood was collected from the jugular vein and analyzed for glucose values."}, "[3]": {"test_system": "blood glucose", "assay": "Blood glucose in rats after oral gavage or subcutaneous dosing", "type": "in vivo", "details": "subcutaneous 0.3 IU/kg", "protocol": "The peptide and oil for formulations 44-47 were sonicated until they appeared cloudy but homogenous. Then the remaining ingredients were added to each sample. The samples were sonicated again until they appeared cloudy but homogenous. The samples were stored overnight at room temperature. Normal SD Rats (5 rats/group) were fasted overnight before being dosed by oral gavage at insulin equivalent dosage of 75 IU/kg. For comparison, a fifth group (sample 48) was dosed with Humulin R (recombinant human insulin) subcutaneously at 0.3 IU/kg. Blood was collected at predose (−30 min) and post dose (10 min, 30 min, 1 h, 1.5 h, 2 h, 3 h, 4 h, 6 h, 8 h) for glucose measurements by a glucometer. […]"}, "[4]": {"details": "cited from earlier work"}}}
{"substance": "insulin-PEG (2 kDa): human insulin conjugated with a 2 kDa PEG", "values": [{"measurement": "% of the insulin-PEG permeating through the cell layer after 3 hours", "setting": "[1]", "value": 1, "unit": "%"}, {"measurement": "serum insulin-PEG / absorption", "setting": "[2]", "value": "better absorbed than 5 kDa PEG"}]}
{"substance": "Sample 19: 0.011 mg/kg insulin, administered subcutaneously", "values": [{"measurement": "time glucose back to baseline (~60 mg/dL)", "setting": "[3]; Example 11", "value": "about 3 hours"}, {"measurement": "reduction in blood glucose to, within 30 minutes", "setting": "[3]; Example 11, all rats", "value": 20, "unit": "mg/dL"}]}
{"substance": "Sample 17: 0.015 mg/kg insulin-PEG (2 kDa), administered subcutaneously", "values": [{"measurement": "time glucose back to baseline (~60 mg/dL)", "setting": "[3]; Example 10", "value": "about 4 hours"}]}
{"substance": "48: Humulin R (recombinant human insulin) dosed subcutaneously at 0.3 IU/kg [Sample 48]", "values": [{"measurement": "time glucose back at baseline", "setting": "[3]; Example 14", "value": 3, "unit": "h"}]}
{"substance": "GLP-1: a 31 amino acid peptide, an incretin, a hormone that can decrease blood glucose levels", "values": [{"measurement": "in vivo half-life", "setting": "[4]", "value": "less than two"}]}
{"substance": "Sample 18: 0.011 mg/kg insulin, administered subcutaneously", "values": [{"measurement": "time glucose back to baseline (~60 mg/dL)", "setting": "[3]; Example 10", "value": "about 3 hours"}]}
